Test results published in PMC2749987 (European journal of pharmacology, 2009).
Where two headings read alike, the source gives them in different places.

Legend:
5-HT2A = details: ref Knight et al., 2004; cited from earlier work
human 5-HT2A receptor [1] = biological target: T1, human 5-HT2A receptor (Homo sapiens, UniProt P28223); format: binding; details: for nH (Hill slope), 5-HT2A binding: competition binding
human 5-HT2B receptor [2] = biological target: T2, human 5-HT2B receptor (Homo sapiens, UniProt P41595); format: binding; details: for nH (Hill slope), 5-HT2B binding: competition binding
human 5-HT2C receptor [3] = biological target: T3, human 5-HT2C receptor (Homo sapiens, UniProt P28335); format: binding; details: for nH (Hill slope), 5-HT2C binding: competition binding
T3 sequence (P28335 33-458): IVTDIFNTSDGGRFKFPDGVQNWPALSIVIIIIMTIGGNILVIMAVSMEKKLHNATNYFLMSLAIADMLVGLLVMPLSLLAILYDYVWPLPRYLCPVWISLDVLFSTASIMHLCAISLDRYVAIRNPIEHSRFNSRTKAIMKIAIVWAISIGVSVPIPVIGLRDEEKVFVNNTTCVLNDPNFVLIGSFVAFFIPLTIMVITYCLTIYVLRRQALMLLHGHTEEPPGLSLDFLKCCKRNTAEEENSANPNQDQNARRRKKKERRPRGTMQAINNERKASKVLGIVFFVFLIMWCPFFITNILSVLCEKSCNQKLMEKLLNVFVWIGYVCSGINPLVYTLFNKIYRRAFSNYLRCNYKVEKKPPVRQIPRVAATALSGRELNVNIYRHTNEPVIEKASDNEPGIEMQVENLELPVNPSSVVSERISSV

human 5-HT2C receptor [4] = biological target: T3, human 5-HT2C receptor; format: cell-based
human 5-HT2A receptor [5] = biological target: T1, human 5-HT2A receptor; format: cell-based
human 5-HT2B receptor [6] = biological target: T2, human 5-HT2B receptor
mice = details: intraperitoneal single-dose, ref Rowland et al., 2008, cited from earlier work
5-HT2C receptors = details: ref Jensen, 2006, Smith et al., Thomsen et al., 2008; cited from earlier work
5-HT2A receptors [7] = details: read-out: affinity at 5-HT2A receptors Ki, ref Jensen, 2006, Smith et al., Thomsen et al., 2008; cited from earlier work
5-HT2B receptors [8] = details: read-out: affinity at 5-HT2B receptors Ki, ref Jensen, 2006, Smith et al., Thomsen et al., 2008; cited from earlier work
5-HT2A receptors [9] = details: ref Jensen, 2006, Smith et al., Thomsen et al., 2008; cited from earlier work
5-HT2B receptors [10] = details: ref Jensen, 2006, Smith et al., Thomsen et al., 2008; cited from earlier work
rats = details: oral single-dose, ref Thomsen et al., 2008, cited from earlier work
[11] = read-out: 5-HT2A Ki ± SEM, competition vs 1.0 nM [3H]-ketanserin
[12] = read-out: 5-HT2B Ki ± SEM, competition vs 5.0 nM [3H]-mesulergine

T1 sequence (P28223 whole entry): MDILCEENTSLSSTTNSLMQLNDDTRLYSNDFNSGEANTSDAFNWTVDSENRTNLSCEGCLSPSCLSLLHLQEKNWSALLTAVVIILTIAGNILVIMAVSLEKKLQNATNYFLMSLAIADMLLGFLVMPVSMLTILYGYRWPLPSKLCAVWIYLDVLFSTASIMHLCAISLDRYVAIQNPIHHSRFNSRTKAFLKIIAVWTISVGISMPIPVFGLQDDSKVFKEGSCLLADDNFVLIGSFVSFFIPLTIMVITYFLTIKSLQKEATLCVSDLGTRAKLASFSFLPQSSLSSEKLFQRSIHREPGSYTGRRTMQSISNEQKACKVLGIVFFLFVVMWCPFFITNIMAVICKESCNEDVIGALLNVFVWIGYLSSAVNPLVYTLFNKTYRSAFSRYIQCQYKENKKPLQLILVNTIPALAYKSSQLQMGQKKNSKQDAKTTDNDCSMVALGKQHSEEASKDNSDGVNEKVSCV
T2 sequence (P41595 whole entry): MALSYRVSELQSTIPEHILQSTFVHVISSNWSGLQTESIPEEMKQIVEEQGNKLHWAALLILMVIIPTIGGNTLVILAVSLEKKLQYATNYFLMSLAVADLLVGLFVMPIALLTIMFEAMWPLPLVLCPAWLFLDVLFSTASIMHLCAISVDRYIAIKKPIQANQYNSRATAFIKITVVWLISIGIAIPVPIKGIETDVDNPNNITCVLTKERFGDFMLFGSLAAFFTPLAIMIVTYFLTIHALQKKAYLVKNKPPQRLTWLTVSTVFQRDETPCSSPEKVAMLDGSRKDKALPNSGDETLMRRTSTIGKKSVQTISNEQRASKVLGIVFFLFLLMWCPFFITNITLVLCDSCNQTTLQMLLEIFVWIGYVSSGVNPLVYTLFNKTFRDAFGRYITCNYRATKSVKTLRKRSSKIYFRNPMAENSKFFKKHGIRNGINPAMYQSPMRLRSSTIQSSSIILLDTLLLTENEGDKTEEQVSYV

COc1cccc([C@H](O)C2CCN(CCc3ccc(F)cc3)CC2)c1OC [M100907]
5-HT2A selectivity over 5-HT2B receptors (5-HT2A): 500 times | 5-HT2A selectivity over 5-HT2C receptors (5-HT2A): 15 times

CN(C)[C@@H]1Cc2ccccc2[C@@H](c2ccccc2)C1 (relative stereo) [(−)-trans-PAT, (1R,3S)-(−)-trans-1-phenyl-3-dimethylamino-1,2,3,4-tetrahydronaphthalene]
nH (Hill slope), 5-HT2A binding (human 5-HT2A receptor [1]): 1.1 ± 0.1 | Ki (human 5-HT2A receptor [1]; [11]): 410 ± 38 nM | Ki (human 5-HT2A receptor [1]; read-out: 5-HT2A receptor affinity Ki, as quoted in text from Table): ~400 nM | nH (Hill slope), 5-HT2B binding (human 5-HT2B receptor [2]): 1.0 ± 0.001 | Ki (human 5-HT2B receptor [2]; [12]): 1200 nM | Ki (human 5-HT2B receptor [2]; read-out: 5-HT2B receptor affinity Ki, as quoted in text from Table): ~1200 nM | difference in affinity at 5-HT2A and 5-HT2C receptors (human 5-HT2C receptor [3]): 10 times | nH (Hill slope), 5-HT2C binding (human 5-HT2C receptor [3]): 0.9 ± 0.1 | potency (EC50) to activate 5-HT2C receptors greater than 5-HT2C affinity (Ki) (human 5-HT2C receptor [4]): about 2 times | Emax, 5-HT2C activation (human 5-HT2C receptor [4]; CHO cells): 464 ± 10.8 % basal control activity | nH, 5-HT2C activation (human 5-HT2C receptor [4]; CHO cells): 0.75 ± 0.13 | nH, inverse agonism at 5-HT2A receptors (human 5-HT2A receptor [5]): 0.85 ± 0.01 | stimulation of PLC/[3H]-IP formation in cells expressing 5-HT2A receptors (human 5-HT2A receptor [5]): does not stimulate | (maximal) inhibition of constitutive signaling at 5-HT2A receptors (human 5-HT2A receptor [5]; 10 μM): 57.6 ± 5.66% | pA2, 5-HT2A receptors (human 5-HT2A receptor [5]; vs serotonin): 6.3 | nH, inverse agonism at 5-HT2B receptors (human 5-HT2B receptor [6]): 0.87 ± 0.23 | stimulation of PLC/[3H]-IP formation in cells expressing 5-HT2B receptors (human 5-HT2B receptor [6]): does not stimulate | (maximal) inhibition of constitutive signaling at 5-HT2B receptors (human 5-HT2B receptor [6]; 10 μM): 35.3 ± 2.00% | pA2, 5-HT2B receptors (human 5-HT2B receptor [6]; vs serotonin): 5.8 | maximal reduction of food intake (mice; at 10 mg/kg): about 75% | ED50, reduction of food intake (mice): 4.2 mg/kg

CN(C)[C@@H]1Cc2ccccc2[C@H](c2ccccc2)C1 [(−)-cis-PAT]
nH (Hill slope), 5-HT2A binding (human 5-HT2A receptor [1]): 1.0 ± 0.1 | Ki (human 5-HT2A receptor [1]; [11]): 1500 ± 2 nM | nH (Hill slope), 5-HT2B binding (human 5-HT2B receptor [2]): ~1.0 | Ki (human 5-HT2B receptor [2]; [12]): ~10000 nM | nH (Hill slope), 5-HT2C binding (human 5-HT2C receptor [3]): 0.90 ± 0.04

C[C@H]1CNCCc2ccc(Cl)cc21 [lorcaserin]
affinity for 5-HT2C receptors higher than at 5-HT2A receptors (5-HT2C receptors): about 7.5 times | affinity for human 5-HT2C over 5-HT2B receptors (5-HT2C receptors): about 12 times | Ki (5-HT2A receptors [7]): ~112 nM | Ki (5-HT2B receptors [8]): ~174 nM | efficacy, activation of 5-HT2A receptors (5-HT2A receptors [9]): 75% | efficacy, activation of 5-HT2B receptors (5-HT2B receptors [10]): 100% | maximal reduction of food intake (rats; at 24 mg/kg): about 60% | ED50, reduction of food intake (rats): 18 mg/kg

CN(C)[C@H]1Cc2ccccc2[C@@H](c2ccccc2)C1 [(+)-cis-PAT]
nH (Hill slope), 5-HT2A binding (human 5-HT2A receptor [1]): 0.9 ± 0.2 | Ki (human 5-HT2A receptor [1]; [11]): 780 ± 2 nM | nH (Hill slope), 5-HT2B binding (human 5-HT2B receptor [2]): ~1.0 | Ki (human 5-HT2B receptor [2]; [12]): ~5000 nM | nH (Hill slope), 5-HT2C binding (human 5-HT2C receptor [3]): 0.9 ± 0.1

[3H]C([3H])(N1CCC(C(=O)c2ccc(F)cc2)CC1)C([3H])([3H])n1c(=O)[nH]c2ccccc2c1=O [[^3H]-Ketanserin, reference compound]
Bmax, 5-HT2A receptors (human 5-HT2A receptor [1]; saturation binding): 1.73 ± 0.11 pmol/mg protein
